Reference: patent publication US20230167120A1, “ARYL-FUSED ISOSELENAZOLE COMPOUND CONTAINING TETRAZINE SUBSTITUENT, SYNTHESIS METHOD THEREFOR, AND USE THEREOF” (KEAISE MEDICINE WUHAN CORP., priority 2020, published 2023)
Marks after values point to notes of the source that are not given here.

Tests used:
[1] = test system: U251MG human glioma cells; experiment: In-vitro anti-cancer activity screening, SRB method, U251MG; type: cell-based; conditions: U-251
Description: (§1) Referring to the method of example 9, two tumor cell lines, U251MG and U251TR human glioma cells, were selected, and temozolomide and the compounds of the present disclosure were subjected to in-vitro anti-cancer activity screening using the SRB method.

[2] = test system: human hepatoma cells (SMMC-7721); experiment: In-vitro growth inhibition, MTT method, SMMC-7721; type: cell-based; conditions: 48 h
Description: (§2) The in-vitro growth inhibitory activity of compounds 1 to 8 of the present disclosure against human glioma cells (U87 and LN229), human hepatoma cells (SMMC-7721) and human pancreatic carcinoma cells (Panc1) was studied adopting the MTT method.
(§3) U87, LN229, SMMC-7721 and Panc1 cells growing at log phase were separately inoculated into a 96-well plate at a density of 5×10^4 cells/mL, 180 μL/well. After the cells were attached to the wall, 20 μL of a drug liquid was added to each well, so that the final concentrations of the drug were 0 μM, 5 μM, 10 μM, 20 μM and 50 μM. After 48 h of action, a 5 mg/mL MTT solution (20 μL/well) was added. After the cells were incubated in a CO2 incubator for 3 to 4 h, the supernatant was carefully discarded. After the residual liquid was air-dried, acidified isopropanol (50 μL of concentrated hydrochloric acid dissolved in 500 mL of isopropanol) was added at […], and the plate was shaken on a shaker for 30 min. After the crystals were completely dissolved, absorbance OD values were measured by a microplate reader at 570 nm.
(§4) Cell viability %=(drug-treated cell OD−blank group OD)/(control cell OD−blank group OD)×100
(§5) Cell killing rate %=1−cell viability %

[3] = test system: U251TR human glioma cells; experiment: In-vitro anti-cancer activity screening, SRB method, U251TR; type: cell-based; conditions: Glioma cell, drug-resistant strain
Description: as §1

[4] = test system: human glioma cells (U87); experiment: In-vitro growth inhibition, MTT method, U87; type: cell-based; conditions: Glioma cell, 48 h
Description: as §2
as §3, with “After the cells were attached to the wall, 20 μL of a drug liquid was added to each well, so that the final concentrations of the drug were 0 μM, 5 μM, 10 μM, 20 μM and 50 μM.” left out
as §4, §5

[5] = test system: human pancreatic carcinoma cells (Panc1); experiment: In-vitro growth inhibition, MTT method, Panc1; type: cell-based; conditions: PANC-1, 48 h
Description: as §2, §3, §4, §5

[6] = test system: human glioma cells (LN229); experiment: In-vitro growth inhibition, MTT method, LN229; type: cell-based; conditions: LN-229, 48 h
Description: as §2, §3, §4, §5

[7] = test system: human glioma cell U87; experiment: Tumor volume inhibition rate, i.v. dosing; type: in vivo, Balb/c nude mice; conditions: Mus musculus, iv, TMZ 10 mg·kg^−1, i.v.
Description: In addition, low-dosage 0409 (20 mg·kg^−1, i.v.) and TMZ (10 mg·kg^−1, i.v.) were synchronously used for an assay to determine the volume tumor inhibition rate.

[8] = test system: human glioma cell U87; experiment: Pharmacodynamic study in human glioma cell U87 subcutaneous model; type: in vivo, Balb/c nude mice; conditions: compounds 20 mg/Kg, q.d.×14 days
Text: The route of administration was intragastric administration ([…]., q.d.×14 days).

[9] = test system: human glioma cell U87; experiment: In-vivo antitumor activity, U87 tumor-bearing nude mice, i.g. dosing; design: species or system Balb/c nude mice; conditions: temozolomide group 30 mg·kg^−1, i.g., q.d., end of the experiment; for Tumor volume: 11 days
Text: The tumor emergence rate was 100%.
The solvent was freshly prepared when needed each day.

[10] = 240 h, Day 10, 20 mg·kg^−1, i.v.
[11] = 264 h, Day 11, 20 mg·kg^−1, i.v.
[12] = 288 h, Day 12, 20 mg·kg^−1, i.v.
[13] = 312 h, Day 13, 20 mg·kg^−1, i.v.
[14] = 336 h, Day 14, 20 mg·kg^−1, i.v.
[15] = 360 h, Day 15, 20 mg·kg^−1, i.v.
[16] = 384 h, Day 16, 20 mg·kg^−1, i.v.
[17] = 408 h, Day 17, 20 mg·kg^−1, i.v.
[18] = 432 h, Day 18, 20 mg·kg^−1, i.v.

Structure (SMILES) | IC50 [1] [µM] | IC50 [2] [µM] | IC50 [3] [µM] | IC50 [4] [µM] | IC50 [5] [µM] | IC50 [6] [µM] | inhibition in vivo at 20 mg/kg [7, 10] [%] | inhibition in vivo at 20 mg/kg [7, 11] [%] | inhibition in vivo at 20 mg/kg [7, 12] [%] | inhibition in vivo at 20 mg/kg [7, 13] [%] | inhibition in vivo at 20 mg/kg [7, 14] [%] | inhibition in vivo at 20 mg/kg [7, 15] [%] | inhibition in vivo at 20 mg/kg [7, 16] [%] | inhibition in vivo at 20 mg/kg [7, 17] [%] | inhibition in vivo at 20 mg/kg [7, 18] [%] | Tumor inhibition rate ([8]; Day 1) [%] | Tumor inhibition rate ([8]; Day 4) [%] | Tumor inhibition rate ([8]; Day 7) [%] | Tumor inhibition rate ([8]; Day 10) [%] | Tumor inhibition rate ([8]; Day 14 (end of the experiment)) [%] | also measured
Cn1nnc2c(C(=O)NCCn3[se]c4ccc(Br)cc4c3=O)ncn2c1=O [Compound 5, 3,4-dihydro-3-methyl-4-oxo-N-(3(2H)-oxo-5-bromo-1,2-benzisoselenazol-2-yl)-ethyl-imidazo[5,1-d]-1,2,3,5-tetrazine-8-carboxamide] | 61.7 ± 5.79 | 7.77 ± 3.28 | 56.2 ± 11.7 | 35.8 ± 6.27 | 4.41 ± 2.89 | 14.4 ± 3.89 | 27.1 | 27 | 36.8 | 36.8 | 44.6 | 59.5 | 61.2 | 58.5 | 64.4 | – | – | – | – | – | –
Cc1ccc2[se]n(CCNC(=O)c3ncn4c(=O)n(C)nnc34)c(=O)c2c1 [Compound 6, 3,4-dihydro-3-methyl-4-oxo-N-(3(2H)-oxo-5-methyl-1,2-benzisoselenazol-2-yl)-ethyl-imidazo[5,1-d]-1,2,3,5-tetrazine-8-carboxamide] | 1.26 ± 0.83 | 11.2 ± 2.11 | 29.4 ± 3.21 | 19.2 ± 3.77 | 29.3 ± 0.42 | 11.3 ± 0.82 | 91.5 | 91.6 | 90.1 | 88.5 | 88 | 88.9 | 87.5 | 88.5 | 88.3 | 9.05 | 68.76 | 84.09 | 86.55 | 92.48 | –
COc1ccc2[se]n(CCNC(=O)c3ncn4c(=O)n(C)nnc34)c(=O)c2c1 [Compound 7, 3,4-dihydro-3-methyl-4-oxo-N-(3(2H)-oxo-5-methoxy-1,2-benzisoselenazol-2-yl)-ethyl-imidazo[5,1-d]-1,2,3,5-tetrazine-8-carboxamide] | 154 ± 5.64 | 27 ± 3.22 | > 500 | 47 ± 2.88 | 15.7 ± 6.22 | 21.2 ± 1.28 | 22 | 29.7 | 37.5 | 48 | 45.5 | 51.4 | 59.7 | 46.3 | 54.7 | – | – | – | – | – | –
Cn1nnc2c(C(N)=O)ncn2c1=O [TMZ, temozolomide, reference compound] | 431 ± 25.8 | – | > 500 | 373 ± 24.1 | – | > 500 | 36.7 | 58.9 | 38 | 38.1 | 24.4 | 63.9 | 54.3 | 51 | 54.5 | 6.77 | 38.14 | 54.29 | 46.23 | 14.26 | Tumor volume [9]: 209.18±57.83 mm^3; Tumor volume ([9]; listed as Temozolomide): 209.18 ± 57.83*** mm^3; Tumor proliferation inhibition rate [9]: 62.75%; Tumor weight [9]: 0.29 ± 0.07 g; Tumor weight ([9]; listed as Temozolomide): 0.29 ± 0.07 g
